Assay [1] concerns hippocampal cultures. The assay can be described thus: Synaptophysin staining and surface GluA1-synaptophysin colocalization. The assay is classed as cell-based, Sprague Dawley rats. The following applies: for colocalization between surface GluA1 and synaptophysin immunostaining: control 43±5.4%; for synaptophysin staining: leptin 50 nM, 30 min. As to the method: Hippocampal cultures were prepared from neonatal Sprague Dawley rats as before (O'Malley et al. 2007). Briefly, neonatal Sprague Dawley rats (1-3 days old) were killed by cervical dislocation in accordance with Schedule 1 of the United Kingdom Government Animals (Scientific Procedures) Act, 1986 and the hippocampi removed. After washing in HEPES buffered saline (HBS) comprising (mM): NaCl 135; KCl 5; CaCl2 1; MgCl2 1; HEPES 10; D-glucose 25 at pH 7.4; cells were treated with protease Type X and Type XIV (0.5 mg/ml; Sigma) for 25 min at room temperature. Dissociated cells were plated onto sterile dishes (Falcon 3001) treated with poly-1-lysine (20 μg/ml; 1-2 h) and maintained in MEM with serum replacement-2 (Sigma) in a humidified atmosphere of 5% CO2 and […] at 37° C. for up to 3 weeks.
To monitor GluA1 surface expression, immunocytochemistry was performed on hippocampal cultures (7-14 DIV) as before (Moult et al. 2010). […] Neurons were then fixed with 4% paraformaldehyde (5 min) before adding an appropriate fluorescently labelled secondary.
As excitatory synaptic strength is governed by the density of AMPA receptors expressed at synapses, the effects on synaptic AMPA receptors was examined by comparing the colocalization between surface GluA1 and synaptophysin immunolabelling in hippocampal cultures (Moult et al. 2010). […] Similarly, in hippocampal neurons treated with leptin (116-130), synaptophysin staining was increased to 122±9% (n=36; P<0.05) and a significant increase (to 64±4.9%; n=36; P<0.01) in GluA1-synaptophysin colocalization was observed (FIG. 2E). Conversely, exposure to leptin (22-56) had no significant effect on either synaptophysin staining (105±9%; n=36; P>0.05) or the degree of colocalization (49±5.4%; n=36; P>0.05; FIG. 2E).

For assay [2], the system named is tau in hippocampal neurons. The assay can be described thus: Immunocytochemistry of endogenous tau and tau/PSD-95 co-localization. The assay is classed as cell-based, Sprague-Dawley rats. The following applies: for % co-localization of tau and PSD-95 in Aβ1-42-treated neurons / relative tau intensity in Aβ1-42-treated neurons: Aβ1-42 1 μM plus leptin/fragment 10 nM or SB216763 100 nM. As to the method:
(§1) Hippocampal cultures were prepared as previously (Moult et al, 2010). Neonatal Sprague-Dawley rats (1-3 d old) were […] killed by cervical dislocation in accordance with the UK Animals (Scientific Procedures Act) 1986 legislation. Hippocampi were removed, and after washing in HEPES-buffered saline comprising (mM) 135 NaCl; 5 KCl; 1 CaCl2; 1 MgCl2; 10 HEPES; and 25 D-glucose at […], were treated with papain (1.5 mg ml21; Sigma-Aldrich) for 20 min at 37° C. Dissociated cells were plated onto sterile dishes (35 mm diameter; Greiner Bio-One, Kremsmun-ster, Austria) treated with poly-D-lysine (20 μg ml^−1; 1-2 h). Cultures were maintained in serum replacement medium (SR2; Sigma-Aldrich) in a humidified atmosphere of 5% CO2 and […] at 37° C. for up to 2 wk.
Immunocytochemistry was conducted on primary hippocampal cultures (7-14 DIV). Prior to labelling with antibodies, neurons were washed with HBS containing glycine (0.01 mM) and incubated with agents for 1 h at room temperature. Cultures were fixed with 4% paraformaldehyde for 5 min, then permeabilized with 0.1% Triton X-100 for 5 min. To label endogenous tau, neurons were incubated with a rabbit anti-tau (Ab-217; Genscript) primary antibody (1:200 dilution) at room temperature for 30 min, followed by incubation with an Alexa Fluor555 donkey anti-rabbit (1:250, Invitrogen) secondary antibody for an additional 30 min duration. To assess the % co-localisation of tau at synapses, neurons were dual labelled with an antibody against the synaptic marker, PSD-95 (mouse anti-PSD-95; 1:500, Thermo Fisher) followed by application of an Alexa Fluor488 goat anti-mouse secondary antibody (1:500, Invitrogen).
(§2) A Zeiss LSM510 confocal microscope was used for image acquisition and analysis. Images were obtained using a 10-s scan speed in single tracking mode or multi-tracking mode for dual labelling experiments. The intensity of immunostaining was measured off-line using Lasersharp software (Zeiss Lasersharp), whereby analysis lines of 50 μm length were drawn along randomly selected dendritic regions. All data were obtained from at least three different cultures from different animals. Imaging conditions including illumination intensity and photomultiplier gains were kept constant between treatments for each experiment. In addition, data were normalised relative to the mean fluorescence intensity obtained from control neurons. For synaptic co-localisation experiments, tau and PSD-95 positive immunostaining were compared. The number of tau-positive sites that co-localized with PSD-95 positive sites were counted and expressed as a percentage of total positive sites (peaks of intensity).

Assay [3] concerns p-Tau in hippocampal neurons. The assay can be described thus: Immunocytochemistry of phosphorylated tau and p-tau/PSD-95 co-localization. The following applies: for % co-localization of p-Tau and PSD-95 in Aβ1-42-treated neurons / p-Tau levels in Aβ1-42-treated neurons: Aβ1-42 1 μM plus leptin 10 nM or leptin(116-130). The assay is classed as cell-based, Sprague-Dawley rats. As to the method:
as §1
Phosphorylated tau was labelled with primary antibody rabbit anti-tau (Ab-396) polyclonal antibody (1:500, Gen Script) corresponding to phosphorylation site of serine 396 (Y-K-S^P-P-V). To visualise p-tau labelling, neurons were then incubated for 30 min with Alexa fluor555 donkey anti-rabbit IgG secondary antibody (1:250, Thermo Fisher Scientific). For synaptic localisation of p-tau, a secondary primary antibody was then added to compare p-tau localization relative to the synaptic marker, PSD95 (mouse anti-PSD-95, 1:500, Thermo Fisher Scientific) for 30 min. PSD-95 labelling was visualized by incubating with a goat anti-mouse Alexa Fluor […] antibody (1:500; Thermo Fisher Scientific) for 30 min.
as §2

Take “leptin (22-56): leptin fragment amino acids 22-56 (Bachem), comparison fragment (VPIQKVQDDTKTLIKTIVTRINDISHTQSVSSKQK; UniProt P41159 22-56, looked up, fragment) [reference compound]”: in assay [1], the “colocalization between surface GluA1 and synaptophysin immunostaining” value was 49±5.4%; the synaptophysin staining is 105±9 % of control.
As to “Aβ1-42: amyloid beta 1-42, toxin used in the AD models [reference compound]”, in assay [2] (1 μM), the “% co-localization of tau and PSD-95, Aβ peptide alone” value was “increases % co-localization between endogenous tau and PSD-95”; the “relative tau intensity at dendrites, Aβ peptide alone” value was “increased endogenous tau expression compared to control”. Besides, in assay [3] (1 μM), the “p-Tau staining, Aβ1-42 alone” value is on record as “increases phosphorylation of tau” and the “synaptic levels of p-Tau (p-Tau/PSD-95), Aβ1-42 alone” value is “synaptic levels of p-Tau are increased”.
Consider “leptin: the metabolic hormone leptin, whole (full length) leptin molecule; human leptin from Sigma in SH-SY5Y work”, for which, in assay [1], the “colocalization between surface GluA1 and synaptophysin immunostaining” value was 62±4.4%; the synaptophysin staining is 144±9 % of control. Further, in assay [2], the “% co-localization of tau and PSD-95 in Aβ1-42-treated neurons” value is on record as “prevented the Aβ1.42-driven movement of tau to synapses”; the “relative tau intensity in Aβ1-42-treated neurons” value was “reducing the dendritic levels of tau to near control levels”. Also, in assay [3], the “% co-localization of p-Tau and PSD-95 in Aβ1-42-treated neurons” value was “prevents Aβ1-42-driven tau phosphorylation and its targeting to synapses”; the “p-Tau levels in Aβ1-42-treated neurons” value is recorded as “prevents Aβ1-42-driven tau phosphorylation”.
For “SCSLPQTSGLQKPES (listed as Mus musculus) [leptin (116-130)]”, in assay [1], the “colocalization between surface GluA1 and synaptophysin immunostaining” value was 64±4.9%; the synaptophysin staining was 122±9 % of control. Further, in assay [2], the “% co-localization of tau and PSD-95 in Aβ1-42-treated neurons” value is listed as “prevented Aβ1-42-driven movement of tau to synapses”; the “relative tau intensity in Aβ1-42-treated neurons” value is “reducing dendritic tau levels”. Also, in assay [3], the “% co-localization of p-Tau and PSD-95 in Aβ1-42-treated neurons” value was “prevents Aβ1-42-dependent phosphorylation of tau and it trafficking to synapses”; the “p-Tau levels in Aβ1-42-treated neurons” value is “prevents Aβ1-42-dependent phosphorylation of tau”.

The values above are taken from patent US20200255492A1, “LEPTIN PEPTIDES AND THEIR USE FOR TREATING NEUROLOGICAL DISORDERS” (UNIVERSITY OF DUNDEE, priority 2017, published 2020).
